Test results as given in publication PMC12443583 (Nature Medicine, 2025).

Experiments:
p-MEK (Ser222) = assay: p-MEK in tumor biopsies, antibody bead-based Luminex; format: in vivo, human; details: post-treatment versus pretreatment biopsy
p-ERK (Thr185–Try187) = assay: p-ERK in tumor biopsies, antibody bead-based Luminex; format: in vivo, human; details: post-treatment versus pretreatment biopsy
LGSOC = details: 23 (binimetinib), cited from earlier work; for progression-free interval / response rate: phase 2 and phase 3 trials, ref 24 (selumetinib), 25 (trametinib); for discontinuation rates because of AEs: ref 25 (trametinib)

For `CNS(=O)(=O)Nc1nccc(Cc2c(C)c3ccc(Oc4ncccn4)cc3oc2=O)c1F` [avutometinib], the “phosphorylation of p-MEK in tumor biopsies” value (p-MEK (Ser222)) was “reduction” and the “phosphorylation of p-ERK in tumor biopsies” value (p-ERK (Thr185–Try187)) was “reduction”.

In the case of `Cn1cnc2c(F)c(Nc3ccc(Br)cc3F)c(C(=O)NOCCO)cc21` [binimetinib], the progression-free interval (LGSOC) is given as 9.1 months, the response rate (LGSOC) is given as 16% and the “discontinuation rates because of AEs” value (LGSOC) is given as 31%.

For `Cn1cnc2c(F)c(Nc3ccc(Br)cc3Cl)c(C(=O)NOCCO)cc21` [selumetinib], the progression-free interval (LGSOC) is listed as 11 months and the response rate (LGSOC) is listed as 15%.

In the case of `CC(=O)Nc1cccc(-n2c(=O)n(C3CC3)c(=O)c3c(Nc4ccc(I)cc4F)n(C)c(=O)c(C)c32)c1` [trametinib], the progression-free interval (LGSOC) is given as 13 months, the response rate (LGSOC) is given as 26% and the “discontinuation rates because of AEs” value (LGSOC) is given as 36%.
